Test results published in patent US20200246316A1, “METHODS OF TREATING POST-SURGICAL PAIN WITH A THIAZOLINE ANTI-HYPERALGESIC AGENT” (CERSCI THERAPEUTICS, INC., priority 2019, published 2020).
Entries after “also recorded” stand apart in the source; their conditions may differ. Structures can show the parent of a compound that is named as a salt. Where two headings read alike, the source gives them in different places.

What was measured:
OATP1B3 = molecular target: T1, OATP1B3 (Homo sapiens, UniProt Q9NPD5); assay: Inhibition of uptake (SLC) transporters; format: in vitro ADME
T1 construct: expressed in transfected cells; host or cells: HEK293 cells
T1 sequence (Q9NPD5 whole entry): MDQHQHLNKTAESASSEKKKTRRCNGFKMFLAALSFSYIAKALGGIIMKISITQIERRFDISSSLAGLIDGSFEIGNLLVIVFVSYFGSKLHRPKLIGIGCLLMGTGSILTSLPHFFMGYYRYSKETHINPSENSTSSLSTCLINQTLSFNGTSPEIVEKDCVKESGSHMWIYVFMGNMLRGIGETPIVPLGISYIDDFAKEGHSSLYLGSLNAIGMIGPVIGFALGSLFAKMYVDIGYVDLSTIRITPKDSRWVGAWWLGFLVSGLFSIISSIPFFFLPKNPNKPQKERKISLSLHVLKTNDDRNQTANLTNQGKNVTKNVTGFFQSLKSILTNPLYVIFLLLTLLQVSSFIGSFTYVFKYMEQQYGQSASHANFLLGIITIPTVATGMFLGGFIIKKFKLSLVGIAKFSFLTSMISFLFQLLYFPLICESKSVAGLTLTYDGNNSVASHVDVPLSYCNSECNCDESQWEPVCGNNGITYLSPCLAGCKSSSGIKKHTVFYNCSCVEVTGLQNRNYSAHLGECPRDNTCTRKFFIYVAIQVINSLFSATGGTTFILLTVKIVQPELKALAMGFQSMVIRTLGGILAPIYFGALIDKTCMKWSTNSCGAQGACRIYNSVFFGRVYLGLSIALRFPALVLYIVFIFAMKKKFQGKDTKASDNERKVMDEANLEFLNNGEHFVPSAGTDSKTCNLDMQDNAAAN

[1] = Rat 7-day repeat dose PO study (toxicokinetics, MTD); format: in vivo; settings: 2000 mg/kg
Description: The vehicle was 0.5% HPMC.
Toxicokinetic (TK) results were as follows:

pKa values = format: physicochemical
[2] = Cytotoxicity by lactate dehydrogenase (LDH) release; format: cell-based; settings: human, Caco-2 cells; read-out: percent cytotoxicity (LDH release)
uninjured animals = assay: Normal sensation in uninjured animals; format: in vivo
Description: In various embodiments, Compound 1 is efficacious in in vivo animal models of acute post-incisional hyperalgesia, both prophylactically and palliatively. […] In various embodiments, less than about 1%, 0.8%, 0.6%, 0.4%, 0.2%, 0.1%, 0.08%, 0.06%, 0.04%, 0.02%, or 0.01% of Compound 1 in blood plasma penetrates the BBB.

[3] = tested on: established incision-induced mechanical hyperalgesia; assay: Brennan incisional pain model, treatment paradigm; format: in vivo, rat
Description: (§1) Two incisional pain models were used to assess Compound 1 effects on hyperalgesia. The first model is referred to as the Brennan model in which, under anesthesia, a 1 cm longitudinal incision to the skin and underlying fascia of a rat hindpaw is made. The second is a variation but is a more invasive procedure in which the skin and muscle are spread apart using forceps which creates a longer-lasting hypersensitivity.
Using the Brennan protocol and a treatment paradigm in rat, Compound 1 (10 and 30 mg/kg PO), morphine (3 mg/kg SC) or vehicle were administered daily at 24 h post-incision, and again at 48 and 72 h post-incision. Mechanical thresholds were obtained at 1 h and 2 h post-dose in all cohorts on all days.

peroxynitrite (PN) = assay: Chemical-based assays of peroxynitrite (PN) oxidation; format: biochemical
Description: In cell-based assays of PN-mediated cytotoxicity, Compound 1 is protective. […] Chemically, Compound 1 can also react stoichiometrically with peroxynitrite to form a para-nitro adduct. Without being bound by theory, by targeting and removing peroxynitrite and peroxide, Compound 1 can disrupt the ensuing cascades that lead to hypersensitivity (protein modification, ion channel hyperexcitation) thus providing a long duration event in terms of pain relief.

[4] = Metabolic stability in hepatocytes; format: in vitro ADME
Description: Further metabolism work in additional species will be undertaken.

[5] = Red Blood Cell (RBC) partitioning; format: in vitro ADME; settings: 60 min post-exposure
Description: The compound distributed readily in tissues with a steady-state volume of distribution of 1.7 L/kg.

P-gp = molecular target: T2, P-gp (Homo sapiens, UniProt P08183); assay: Inhibition of efflux (ABC) transporters; format: in vitro ADME
T2 construct: Caco-2 cells; endogenous in cells; host or cells: Caco-2 cells
T2 sequence (P08183 whole entry): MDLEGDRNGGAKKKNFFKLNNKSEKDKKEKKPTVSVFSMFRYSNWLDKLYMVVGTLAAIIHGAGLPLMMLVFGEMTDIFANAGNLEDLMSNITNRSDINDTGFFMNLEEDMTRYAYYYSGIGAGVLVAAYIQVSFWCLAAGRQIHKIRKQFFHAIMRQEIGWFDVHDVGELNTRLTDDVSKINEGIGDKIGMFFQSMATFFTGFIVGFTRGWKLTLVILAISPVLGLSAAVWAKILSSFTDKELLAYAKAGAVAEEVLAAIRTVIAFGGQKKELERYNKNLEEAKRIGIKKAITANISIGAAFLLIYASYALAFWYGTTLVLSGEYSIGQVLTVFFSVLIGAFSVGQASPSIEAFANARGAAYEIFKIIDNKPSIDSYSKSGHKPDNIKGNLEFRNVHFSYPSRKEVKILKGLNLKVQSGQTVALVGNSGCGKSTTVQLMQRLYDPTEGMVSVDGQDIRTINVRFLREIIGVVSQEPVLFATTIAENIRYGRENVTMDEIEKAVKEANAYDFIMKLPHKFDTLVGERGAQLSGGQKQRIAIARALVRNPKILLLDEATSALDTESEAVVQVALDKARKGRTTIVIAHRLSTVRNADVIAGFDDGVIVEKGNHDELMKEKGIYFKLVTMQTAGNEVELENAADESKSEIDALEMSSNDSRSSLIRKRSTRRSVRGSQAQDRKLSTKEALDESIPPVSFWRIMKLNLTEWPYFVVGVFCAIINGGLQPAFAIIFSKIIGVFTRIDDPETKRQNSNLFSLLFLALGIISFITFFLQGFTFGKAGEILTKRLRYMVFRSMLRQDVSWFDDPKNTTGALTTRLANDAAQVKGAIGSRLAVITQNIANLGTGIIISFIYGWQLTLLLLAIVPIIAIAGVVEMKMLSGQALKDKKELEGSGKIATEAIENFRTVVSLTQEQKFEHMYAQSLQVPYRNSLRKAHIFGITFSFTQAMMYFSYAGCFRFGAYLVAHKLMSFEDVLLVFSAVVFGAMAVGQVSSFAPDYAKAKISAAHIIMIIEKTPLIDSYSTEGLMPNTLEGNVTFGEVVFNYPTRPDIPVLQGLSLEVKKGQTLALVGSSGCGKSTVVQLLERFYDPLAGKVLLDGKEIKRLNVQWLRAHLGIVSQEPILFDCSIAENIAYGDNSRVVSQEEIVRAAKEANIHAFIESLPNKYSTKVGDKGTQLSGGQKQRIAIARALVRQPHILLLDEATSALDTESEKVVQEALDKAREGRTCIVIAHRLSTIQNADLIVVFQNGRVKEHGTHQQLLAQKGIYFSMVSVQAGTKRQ

[6] = Solubility in organic/aqueous solvents; format: physicochemical
Experimental: Polymorphic screening of crystalline Compound 1 was performed using 15 organic/aqueous solvent systems, including: n-heptane, methanol, toluene, acetone, tetrahydrofuran, iso-propanol, ethanol, ethyl acetate, iso-propyl acetate, tert-butylmethyl ether, […], 10% water/90% tetrahydrofuran, tert-butyl alcohol, water, and 1:1 tert-butyl alcohol:water.

[7] = tested on: rat hind paw incision model; assay: Brennan incisional pain model, prophylactic paradigm; format: in vivo
Description: as §1
Using the Brennan protocol and a prophylactic paradigm, Compound 1 (3 doses given PO) or vehicle was administered 15 min prior to incision. At the 24-, 48-, and 72-h time points post-incision, mechanical thresholds were obtained (manual von Frey filament, using up/down method).
In a subsequent experiment, the same paradigm was used with Compound 1 administered at a dose of 30 mg/kg PO along with positive control group consisting of celecoxib (30 mg/kg PO), morphine (10 mg/kg SC), and vehicle.

Stability in plasma = format: in vitro ADME
Description: Upon administration, Compound 1 is stable in both plasma and hepatocytes from rat, dog and human.

[8] = Rat brain distribution and pharmacokinetic study; format: in vivo
Description: A rat brain distribution study performed in order to determine standard pharmacokinetic parameters and to assess the brain penetration properties of Compound 1 administered orally and intravenously.

[9] = both, Sprague Dawley (Hsd:SD), rat, in vivo, po

Compound: CC1(C)SC(Nc2ccccc2O)=N[C@@H]1C(=O)O [Compound 1, (R)-2-(2-hydroxyphenylamino)-5,5-dimethyl-4,5-dihydrothiazole-4-carboxylic acid mono-hydrochloride]
- IC50 (OATP1B3; HEK293 cells, probe [3H]-estradiol-17β-glucuronide (0.05 μM), 0.3-600 μM tested): > 600 µM
- transporter inhibition (OATP1B3; OATP1B3): does not inhibit
- Cmax ([1]; both sexes, Sprague Dawley (Hsd:SD), rat, in vivo, po): 121 µg/mL
- AUC(0-t) ([1]; both sexes, Sprague Dawley (Hsd:SD), rat, in vivo, po, AUC0-24 (mean)): 1370 µg·h/mL
- Cmax ([1]; both sexes, Sprague Dawley (Hsd:SD), rat, in vivo, po, Seventh Daily Dose, 2000 mg/kg PO, read-out: Cmax (mean)): 119 µg/mL
- half-life ([1]; both sexes, Sprague Dawley (Hsd:SD), rat, in vivo, po, T1/2 (mean)): 234 min
- Tmax ([1]; both sexes, Sprague Dawley (Hsd:SD), rat, in vivo, po, Tmax (mean)): 2 h
- MTD at 7 days ([1]; both sexes, Sprague-Dawley (Hsd:SD), rat, in vivo, oral gavage 7 days): 2000 mg/kg
- AUC0-24 (mean) [1, 9]: 1609 µg·h/mL
- T1/2 (mean) [1, 9]: 6.7 h
- Tmax (mean) [1, 9]: 1 h
- tolerability ([1]; female rats, oral gavage 7 days): tolerated
- pKa (pKa values; Acidic (first)): 2.29 ± 0.02
- pKa (pKa values; Acidic (second)): 10.24 ± 0.03
- pKa (pKa values; Basic): 6.97 ± 0.01
- cytotoxicity [2]: < 25%
- effect on normal sensation (uninjured animals): does not alter normal sensation
- effect on established mechanical hyperalgesia (overall) ([3]; Compound 1 10 and 30 mg/kg PO daily, morphine 3 mg/kg SC, FIG. 12, mono-hydrochloride): prevented/reversed hyperalgesia completely; also recorded: reversed mechanical hyperalgesia
- reversal of hyperalgesia ([3]; Day 1, 2-h time point, low-dose (10 mg/kg PO)): partial reversal
- mechanical threshold ([3]; Day 1, 1 h post-dose, high-dose (30 mg/kg PO)): 26 g
- mechanical threshold ([3]; Day 1, 2 h post-dose, high-dose (30 mg/kg PO)): 27 g
- reversal of hyperalgesia ([3]; Day 2, 1 h and 2 h post-dosing, both 10 and 30 mg/kg PO cohorts): full reversal of hyperalgesia
- mechanical threshold ([3]; Day 2 prior to dosing, high-dose (30 mg/kg PO)): 29 g
- mechanical threshold ([3]; Day 2 prior to dosing, low-dose (10 mg/kg PO)): 26 g
- hyperalgesia ([3]; Day 3 prior to dosing): did not show hyperalgesia
- PN-mediated oxidation of small-molecule organic substrates such as luminol (peroxynitrite (PN)): inhibits PN-mediated oxidation
- stability in hepatocytes ([4]; dog, mono-hydrochloride): stable; also recorded: showed metabolic stability
- stability in hepatocytes ([4]; human, mono-hydrochloride): stable; also recorded: showed metabolic stability
- stability in hepatocytes ([4]; monkey): showed metabolic stability
- stability in hepatocytes ([4]; rat, mono-hydrochloride): stable; also recorded: showed metabolic stability
- KRBC/PL ([5]; dog): < 0.25
- KRBC/PL ([5]; human): < 0.25
- KRBC/PL ([5]; monkey): < 0.25
- KRBC/PL ([5]; rat): < 0.25
- IC50 (P-gp; Caco-2 cells, probe substrate digoxin (10 μM), bidirectional transport, 1-600 μM tested): > 600 µM
- transporter inhibition (P-gp; P-gp): does not inhibit
- solubility ([6]; 10% water/tetrahydrofuran): sparingly soluble
- solubility ([6]; 10% water:iso-propyl acetate): sparingly soluble
- solubility ([6]; acetone): less than sparingly soluble
- solubility ([6]; ethanol): sparingly soluble
- solubility ([6]; ethyl acetate): less than sparingly soluble
- solubility ([6]; iso-propanol): sparingly soluble
- solubility ([6]; iso-propyl acetate): less than sparingly soluble
- solubility ([6]; methanol): freely soluble
- solubility ([6]; n-heptane): less than sparingly soluble
- solubility ([6]; tert-butyl alcohol): less than sparingly soluble
- solubility ([6]; tert-butyl alcohol:water (1:1)): freely soluble
- solubility ([6]; tert-butyl methyl ether): less than sparingly soluble
- solubility ([6]; tetrahydrofuran): less than sparingly soluble
- solubility ([6]; toluene): less than sparingly soluble
- solubility ([6]; water): sparingly soluble
- reversal of hyperalgesia ([7]; 10 mg/kg PO, mono-hydrochloride): statistically significant reversal of hyperalgesia; also recorded: statistically significant effect
- efficacy relative to vehicle ([7]; 30 mg/kg PO): full efficacy
- dose dependence of anti-hyperalgesic effect ([7]; 3 doses PO, 24, 48, 72 h post-incision, mono-hydrochloride): reversal of hyperalgesia in a dose-dependent manner
- mechanical withdrawal thresholds ([7]; 24-, 48-, 72-h post-incision, Compound 1 30 mg/kg PO, celecoxib 30 mg/kg PO, morphine 10 mg/kg SC): 32 to 35 g
- dose required for significance ([7]; PO, single dose 15 min prior to incision): 10 mg/kg
- duration of prevention of incisional hyperalgesia ([7]; single oral dose): at least 3 days
- duration of effect on development of hyperalgesia ([7]; single oral dose, FIG. 10): prevented the development of hyperalgesia for three days
- effect on development of mechanical hyperalgesia ([7]; single pre-surgical dose, 24 h, 48 h, 72 h post dose, FIG. 11): completely prevented development of mechanical hyperalgesia out through day 3
- stability in plasma (Stability in plasma; dog): stable
- stability in plasma (Stability in plasma; human): stable
- stability in plasma (Stability in plasma; rat): stable
- peak plasma concentration ([8]; 30 mg/kg oral): 9 µg/mL
- time to peak plasma concentration ([8]; 30 mg/kg oral): ≤ 1 h
- bioavailability ([8]; rat, in vivo, 30 mg/kg oral dose): 111%
- half-life ([8]; rat, in vivo, 30 mg/kg oral dose, read-out: terminal half-life (converted)): 96 min
- Kp at 1 h ([8]; rat, in vivo, 1 h after IV administration, read-out: brain-to-plasma concentration ratio): 0.02
- brain/tissue distribution ([8]; rat, in vivo, mono-hydrochloride): distributes to tissues but not to brain to an appreciable extent; also recorded: peripherally restricted
